Results from PubChem BioAssay (NCI).
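Each compound was tested at five concentrations against cells in 96-well plates for 48 hours. Here, GI50 denotes the concentration required for 50% inhibition of growth. TGI: concentration producing complete growth inhibition.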

Tests used:
Assay in all cases: inhibition of tumour cell growth, NCI panel, 48 h
HOP-92 NSCLC = system: HOP-92 NSCLC
A549 NSCLC = system: A549 NSCLC
SK-OV-3 ovarian = system: SK-OV-3 ovarian
SW-620 colon = system: SW-620 colon
SNB-75 CNS = system: SNB-75 CNS
UACC-257 melanoma = system: UACC-257 melanoma
UACC-62 melanoma = system: UACC-62 melanoma
MOLT-4 leukemia = system: MOLT-4 leukemia
EKVX NSCLC = system: EKVX NSCLC
OVCAR-4 ovarian = system: OVCAR-4 ovarian
RPMI-8226 leukemia = system: RPMI-8226 leukemia

| Structure (SMILES) | GI50 (HOP-92 NSCLC) [µM] | TGI (HOP-92 NSCLC) [µM] | GI50 (A549 NSCLC) [µM] | TGI (A549 NSCLC) [µM] | GI50 (SK-OV-3 ovarian) [µM] | TGI (SK-OV-3 ovarian) [µM] | GI50 (SW-620 colon) [µM] | TGI (SW-620 colon) [µM] | GI50 (SNB-75 CNS) [µM] | TGI (SNB-75 CNS) [µM] | GI50 (UACC-257 melanoma) [µM] | TGI (UACC-257 melanoma) [µM] | GI50 (UACC-62 melanoma) [µM] | TGI (UACC-62 melanoma) [µM] | GI50 (MOLT-4 leukemia) [µM] | TGI (MOLT-4 leukemia) [µM] | GI50 (EKVX NSCLC) [µM] | TGI (EKVX NSCLC) [µM] | TGI (OVCAR-4 ovarian) [µM] | TGI (RPMI-8226 leukemia) [µM] |
| --- | --- | --- | --- | --- | --- | --- | --- | --- | --- | --- | --- | --- | --- | --- | --- | --- | --- | --- | --- | --- |
| CCCC(C)c1ccc(OCCCCCCN2CCNCC2)cc1 (stereo not drawn) | 1.54 | 6.7 | 1.9 | 4.34 | 2.57 | 7.12 | 1.72 | 3.57 | 1.41 | 3.06 | 2.05 | 4.72 | 1.95 | 3.71 | 1.52 | 3.48 | 2.34 | 6.63 | – | – |
| O=C1C=C(C2OC(CO)C(O)C2O)C(=O)N1 (stereo not drawn) | – | > 100 | – | > 100 | – | > 100 | – | > 100 | – | > 100 | – | > 100 | – | > 100 | – | > 100 | – | > 100 | > 100 | > 87.8 |
| CN(C)CCNC(=O)c1cccc2c(=O)c3ccccc3oc12 | – | 60.1 | – | > 100 | – | > 100 | – | > 100 | – | > 87.3 | – | 74.4 | – | > 76.2 | – | > 100 | – | > 86.9 | > 90.5 | > 87.1 |
| O=C(c1ccccc1)c1ccc2n[se]nc2c1 | – | – | – | > 100 | – | > 100 | – | > 100 | – | > 100 | – | > 100 | – | > 100 | – | > 100 | – | > 100 | > 100 | > 100 |
| CC(=O)C(C(c1ccccc1)N1CCOCC1)N1CCOCC1 (stereo not drawn) | – | > 100 | – | > 100 | – | > 100 | – | > 100 | – | > 100 | – | 38.9 | – | > 100 | – | > 100 | – | > 100 | > 100 | > 100 |
| CCOP(=Nc1ccc(N(C)C)cc1)(OCC)OCC | – | > 100 | – | > 100 | – | > 100 | – | – | – | > 100 | – | > 100 | – | > 100 | – | > 100 | – | > 100 | > 100 | > 100 |
| CC1=C2C(O)C(C(C)C(=O)N(C)C)CCC2(C)C=CC1=O (stereo not drawn) | – | > 100 | – | > 100 | – | > 100 | – | > 100 | – | > 100 | – | > 100 | – | > 100 | – | > 100 | – | > 100 | > 100 | > 100 |
| Cc1ccc(S(=O)(=O)Nc2cccc3c(=O)[nH]cnc23)cc1 | – | > 100 | – | > 100 | – | > 100 | – | > 100 | – | > 100 | – | > 100 | – | > 100 | – | > 100 | – | > 100 | > 100 | 97.7 |
